Reference: patent publication US6387906B1, “2,4,4-trisubstituted-1,3-dioxolane antifungals” (priority 1997, dated 2002)

Experiments:
Trichophyton rubrum = experiment: Measurement of antifungal activity in vitro (lowest active dose) vs. Trichophyton rubrum; type: cell-based; details: lowest concentration inhibiting growth below 35% of control growth; CYG broth, 30° C. for 5-7 days, turbidimetry
Method: (§1) Test compounds were dissolved at a concentration of 10^−2 M in dimethyl sulfoxide (DMSO) and diluted into CYG broth (Odds, F. C. Antimicrobial Agents and Chemotherapy 1992; 36: 1727-1737) to give a final concentration of 25 μM and, in most tests, 5 μM. For some compounds the tests were done at 100, 10, 1.0 and 0.1 μM. Cultures were inoculated with Candida.kefyr to an initial concentration of 10^4/ml and with Trichophyton rubrum to an equivalent concentration determined by turbidimetry. Cultures were incubated in the wells of microdilution plates at 37° C. for 48 h (C. kefyr) and at 30° C. for 5-7 days (T. rubrum). Growth in wells containing test compounds was estimated turbidimetrically as a percentage of growth in compound-free controls and the lowest concentration of compound that inhibited the growth of an isolate below 35% of control growth was recorded as the lowest active dose (LAD).

Candida kefyr = experiment: Measurement of antifungal activity in vitro (lowest active dose) vs. Candida kefyr; type: cell-based; details: lowest concentration inhibiting growth below 35% of control growth; CYG broth, 37° C. for 48 h, turbidimetry
Method: as §1

Row | SMILES | LAD (μM) vs. T. rubrum (Trichophyton rubrum) | LAD (μM) vs. C. keyr (Candida kefyr)
1 | CCN1CCN(c2ccc(N3CCN(c4ccc(OC[C@@H]5OC[C@@](Cn6ccnc6)(c6ccc(F)cc6)O5)cc4)CC3)cc2)C1=O (racemic) [Compound 24] | ≦5 μM | ≦25 μM
2 | CCN1C(=O)N(c2ccc(N3CCN(c4ccc(OC[C@H]5OC[C@](Cn6cncn6)(c6ccc(F)cc6F)O5)cc4)CC3)cc2)C(=O)C(C)(C)C1=O [Compound 49] | 1 µM | 1 µM
3 | CCC(C)N1CCN(c2ccc(N3CCN(c4ccc(OC[C@@H]5OC[C@@](Cn6cncn6)(c6ccc(F)cc6F)O5)cc4)CC3)cc2)C1=O (relative stereo) [Compound 21, cis-1-[4-[4-[4-[[4-(2,4-difluorophenyl)-4-(1H-1,2,4-triazol-1-ylmethyl)-1,3-dioxolan-2-yl]methoxy]phenyl]-1-piperazinyl]phenyl]-3-(1-methylpropyl)-2-imidazolidinone] | ≦0.1 μM | ≦0.1 μM
4 | CCCN1CCN(c2ccc(N3CCN(c4ccc(OC[C@@H]5OC[C@@](Cn6ccnc6)(c6ccc(F)cc6)O5)cc4)CC3)cc2)C1=O (racemic) [Compound 25] | ≦5 μM | ≦5 μM
5 | CCCn1c(=O)n(CC)c(=O)n(-c2ccc(N3CCN(c4ccc(OC[C@H]5OC[C@](Cn6cncn6)(c6ccc(F)cc6F)O5)cc4)CC3)cc2)c1=O (relative stereo) [Compound 47, (2S-cis)-1-ethyl-3-[4-[4-[4-[[4-(2,4-difluorophenyl)-4-(1H-1,2,4-triazol-1-ylmethyl)-1,3-dioxolan-2-yl]methoxy]-phenyl]-1-piperazinyl]phenyl]-5-propyl-1,3,5-triazine-2,4,6(1H,3H,5H)-trione] | 1 µM | >100 µM
6 | CCCN1C(=O)N(c2ccc(N3CCN(c4ccc(OC[C@@H]5OC[C@@](Cn6cncn6)(c6ccc(Cl)cc6)O5)cc4)CC3)cc2)CC1(C)C (racemic) [Compound 9] | ≦25 μM | ≦25 μM
7 | CC(C)N1CCN(c2ccc(N3CCN(c4ccc(OC[C@@H]5OC[C@@](Cn6ccnc6)(c6ccc(F)cc6)O5)cc4)CC3)cc2)C1=O (racemic) [Compound 23] | ≦5 μM | ≦5 μM
8 | CC(C)N1CCN(c2ccc(N3CCN(c4ccc(OC[C@@H]5OC[C@@](Cn6ccnc6)(c6ccc(F)cc6F)O5)cc4)CC3)cc2)C1=O (racemic) [Compound 34] | ≦5 μM | ≦5 μM
9 | CC(C)N1CCN(c2ccc(N3CCN(c4ccc(OC[C@@H]5OC[C@@](Cn6cncn6)(c6ccc(F)cc6F)O5)cc4)CC3)cc2)C1=O (stereo in doubt) [Compound 41] | ≦0.1 μM | ≦0.1 μM
10 | CCCN1C(=O)N(c2ccc(N3CCN(c4ccc(OCC5OCC(Cn6ccnc6)(c6ccc(Cl)cc6)O5)cc4)CC3)cc2)CC1(C)C (racemic) [Compound 5] | ≦5 μM | ≦25 μM
11 | CCCN1CCN(c2ccc(N3CCN(c4ccc(OCC5OCC(Cn6ccnc6)(c6ccc(Cl)cc6)O5)cc4)CC3)cc2)C1=O (racemic) [Compound 4] | ≦5 μM | ≦5 μM
12 | CCC1C(=O)N(c2ccc(N3CCN(c4ccc(OC[C@@H]5OC[C@@](Cn6cncn6)(c6ccc(F)cc6F)O5)cc4)CC3)cc2)C(=O)N1CC (mixture of isomers) [Compound 20] | >25 µM | ≦5 μM
13 | CCCCN1CCN(c2ccc(N3CCN(c4ccc(OC[C@@H]5OC[C@@](Cn6ccnc6)(c6ccc(Cl)cc6)O5)cc4)CC3)cc2)C1=O (racemic) [Compound 29] | ≦5 μM | ≦25 μM
14 | CCN1CCN(c2ccc(N3CCN(c4ccc(OC[C@@H]5OC[C@@](Cn6ccnc6)(c6ccc(F)cc6F)O5)cc4)CC3)cc2)C1=O (racemic) [Compound 32] | ≦5 μM | ≦25 μM
15 | CCCCN1CCN(c2ccc(N3CCN(c4ccc(OC[C@@H]5OC[C@@](Cn6ccnc6)(c6ccc(F)cc6)O5)cc4)CC3)cc2)C1=O (racemic) [Compound 26] | ≦5 μM | ≦25 μM
16 | CCN1C(=O)N(c2ccc(N3CCN(c4ccc(OC[C@@H]5OC[C@@](Cn6cncn6)(c6ccc(F)cc6F)O5)cc4)CC3)cc2)C(C)(C)C1=O (racemic) [Compound 19] | ≦25 μM | ≦5 μM
17 | CC(C)N1CCN(c2ccc(N3CCN(c4ccc(OC[C@@H]5OC[C@@](Cn6ccnc6)(c6ccc(Cl)cc6)O5)cc4)CC3)cc2)C1=O (racemic) [Compound 28] | ≦5 μM | ≦25 μM
18 | CC(C)N1CCN(c2ccc(N3CCN(c4ccc(OC[C@@H]5OC[C@@](Cn6cncn6)(c6ccc(F)cc6F)O5)cc4)CC3)cc2)C1=O [Compound 50] | 1 µM | 1 µM
19 | CCCn1c(=O)n(CC)c(=O)n(-c2ccc(N3CCN(c4ccc(OC[C@@H]5OC[C@@](Cn6cncn6)(c6ccc(F)cc6F)O5)cc4)CC3)cc2)c1=O [Compound 46] | 100 µM | 1 µM
20 | CCC(C)N1CCN(c2ccc(N3CCN(c4ccc(OC[C@@H]5OC[C@@](Cn6ccnc6)(c6ccc(F)cc6F)O5)cc4)CC3)cc2)C1=O (mixture of isomers) [Compound 35] | ≦5 μM | ≦25 μM
21 | CCCN1C(=O)N(c2ccc(N3CCN(c4ccc(OC[C@@H]5OC[C@@](Cn6cncn6)(c6ccc(F)cc6)O5)cc4)CC3)cc2)CC1(C)C (racemic) [Compound 13] | ≦5 μM | ≦5 μM
22 | CCCN1C(=O)N(c2ccc(N3CCN(c4ccc(OC[C@@H]5OC[C@@](Cn6ccnc6)(c6ccc(F)cc6)O5)cc4)CC3)cc2)CC1(C)C (racemic) [Compound 12] | ≦5 μM | ≦25 μM
23 | CCN1C(=O)N(c2ccc(N3CCN(c4ccc(OC[C@@H]5OC[C@@](Cn6cncn6)(c6ccc(F)cc6F)O5)cc4)CC3)cc2)C(=O)C(C)(C)C1=O (relative stereo) [Compound 48, (2R-cis)-1-ethyl-3-[4-[4-[4-[[4-(2,4-diflurorophenyl)-4-(1H-1,2,4-triazol-1-ylmethyl)-1,3-dioxolan-2-yl]methoxy]phenyl]-1-piperazinyl]phenyl]-5,5-dimethyl-2,4,6(1H,3H,5H)-pyrimidinetrione] | >100 µM | 10 µM
24 | CCCN1CCN(c2ccc(N3CCN(c4ccc(OC[C@@H]5OC[C@@](Cn6ccnc6)(c6ccc(F)cc6F)O5)cc4)CC3)cc2)C1=O (racemic) [Compound 30] | ≦5 μM | ≦5 μM
